The source of these data is ChEMBL document CHEMBL5356955, “Thiamine analogues featuring amino-oxetanes as potent and selective inhibitors of pyruvate dehydrogenase” (Bioorg Med Chem Lett, 2024).

Structures are written as SMILES.

What is called IC50 is the point on the concentration scale where inhibition reaches its midpoint. Broadly, the Ki is the dissociation constant of the complex between target and ligand, obtained from inhibition or displacement. What is called inhibition is the share of the control response that was lost under treatment.

Data set [1] addresses T1, Pyruvate dehydrogenase E1 component subunit alpha, somatic form, mitochondrial (Sus scrofa, UniProt P29804).
T1 sequence (P29804 whole entry): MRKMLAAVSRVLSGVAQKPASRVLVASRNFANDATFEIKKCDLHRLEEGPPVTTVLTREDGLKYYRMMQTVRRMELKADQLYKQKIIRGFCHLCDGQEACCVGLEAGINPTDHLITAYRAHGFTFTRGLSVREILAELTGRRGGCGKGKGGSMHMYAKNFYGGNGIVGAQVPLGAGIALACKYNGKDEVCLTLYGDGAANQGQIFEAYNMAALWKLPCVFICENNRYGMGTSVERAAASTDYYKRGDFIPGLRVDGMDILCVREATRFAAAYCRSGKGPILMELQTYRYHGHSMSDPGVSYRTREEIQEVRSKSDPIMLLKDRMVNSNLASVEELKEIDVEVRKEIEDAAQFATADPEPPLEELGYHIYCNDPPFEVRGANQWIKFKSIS
The experiment in a line: Inhibition of porcine PDHc E1-subunit incubated for 30 mins followed by pyruvate addition in presence of thiamine pyrophosphate by microplate reader analysis.

Data set [2] addresses T2, Pyruvate dehydrogenase E1 component subunit alpha, somatic form, mitochondrial (Sus scrofa) (UniProt P29804).
T2 sequence (whole entry): T1 sequence (P29804 whole entry)
The experiment in a line: Binding affinity to porcine PDHc E1-subunit assessed as KM(TPP)/Ki ratio incubated for 30 mins followed by pyruvate addition by microplate reader analysis.

Data set [3] concerns the target T1, Pyruvate dehydrogenase E1 component subunit alpha, somatic form, mitochondrial. The experiment in a line: Binding affinity to porcine PDHc E1-subunit assessed as inhibition constant incubated for 30 mins followed by pyruvate addition by microplate reader analysis.
Data set [4] has as its target T2, Pyruvate dehydrogenase E1 component subunit alpha, somatic form, mitochondrial (Sus scrofa). Put plainly: Inhibition of porcine PDHc E1-subunit at 10 uM at 1:1 compound: thiamine pyrophosphate ratio incubated for 30 mins followed by pyruvate addition by microplate reader analysis relative to control.
Data set [5] can be described thus: Permeability of the compound assessed as absorbed fraction by PAMPA assay. The format is ADME.
Data set [6] addresses T2, Pyruvate dehydrogenase E1 component subunit alpha, somatic form, mitochondrial (Sus scrofa). The experiment in a line: Inhibition of porcine PDHc E1-subunit at 10 uM at 1:5 compound: thiamine pyrophosphate ratio incubated for 30 mins followed by pyruvate addition by microplate reader analysis relative to control.
Data set [7] in a line: Metabolic stability of the compound assessed as porcine liver esterase mediated hydrolysis at pH 7.4 measured after 4 hrs by UPLC analysis. The format is ADME, Sus scrofa. The note with it: pig, isolated protein, pH 7.4, 4 h.
Data set [8] can be described thus: Thermal stability of the compound assessed as compound remaining in DMSO at 70 degreeC incubated for 2 hrs by NMR analysis. The note with it: read-out: Stability. The format is physicochemical.
Data set [9] can be described thus: Stability of the compound assessed as compound remaining in 1 M aqueous HCl at 37 degreeC incubated for 2 hrs by NMR analysis. The format is physicochemical. The conditions noted are these: read-out: Stability.
Data set [10] is described as follows: Stability of the compound assessed as compound remaining in 1 M aqueous NaOH at 37 degreeC incubated for 2 hrs by NMR analysis. The format is physicochemical. The note with it: read-out: Stability.
Data set [11] can be described thus: Stability of the compound assessed as porcine liver esterase mediated compound degradation by measuring compound recovery at 0.05 mmol measured after 30 mins by NMR analysis. The note with it: pig, read-out: Stability. The format is ADME, Sus scrofa.
A short description of data set [12]: Stability of the compound assessed as compound remaining in 0.1M aqueous phosphate buffer at pH 7.4 incubated for 2 hrs by NMR analysis. The format is physicochemical. The conditions noted are these: read-out: Stability.
The nature of data set [13]: Stability of the compound assessed as compound remaining in 0.1 M aqueous K2CO3 incubated for 1 hr by NMR analysis. The format is physicochemical. The note with it: read-out: Stability.
A short description of data set [14]: Drug metabolism in porcine liver esterase assessed as 2-(4-((4-amino-2-methylpyrimidin-5-yl)methyl)-3-methylthiophen-2-yl)ethan-1-ol formation at pH 7.4 measured after 4 hrs. The format is ADME, Sus scrofa. The note with it: pig, pH 7.4, 4 h.

As to `Cc1ncc(Cc2coc(CCOC(=O)c3ccc(Cl)cc3)c2)c(N)n1`, the IC50 in data set [1] turned out to be 3300 nM.
On to `Cc1ncc(Cc2coc(CCNC(=O)c3cccnc3)c2)c(N)n1`, for which the IC50 in [1] worked out at 2500 nM.
For the molecule `COc1ccc(C(=O)OCC[C@H]2SCN(Cc3cnc(C)nc3N)[C@H]2C)cc1` (racemic), the IC50 in [1] was 3500 nM. Besides, the Ratio in [2] was determined as 2.86. In addition, in data set [3], the Ki came out at 17.5 nM.
For `Cc1ncc(Cc2csc(CCO)c2C)c(N)n1` [3-DEAZATHIAMINE], in that order: 3600 nM, 2.78 and 18 nM.
`COc1ccc(C(=O)OCCc2cn(Cc3cnc(C)nc3N)nn2)cc1`: the IC50 in data set [1] is 6300 nM. Also, the inhibition is 63% in [4] and 25% in data set [6]. In [2], the Ratio amounted to 1.59. For the same molecule, the permeability in [5] worked out at 31%. Further, the Ki in data set [3] came out at 31.5 nM.
On to `Cc1ncc(Cn2cc(CCOC(=O)c3cccnc3)nn2)c(N)n1`, for which the IC50 in data set [1] was 3000 nM.
With `COc1ccc(C(=O)NCCc2scc(Cc3cnc(C)nc3N)c2C)cc1`, the IC50 in data set [1] came to 5100 nM. Further, the Stability result in [7] is on record as “Stable”. The inhibition was 65% in [4] and 28% in [6]. In addition, the Ratio in data set [2] is 1.96. The permeability in data set [5] is recorded as 35%. Further, in data set [3], the inhibition constant (Ki) was 25.5 nM.
`COc1ccc(C2(NCCc3cn(Cc4cnc(C)nc4N)nn3)COC2)cc1`: the IC50 in data set [1] stood at 7800 nM. Also, the inhibition in data set [4] was determined as 58%; in data set [6], 20%. Further, in data set [2], the Ratio stood at 1.28. Also, the permeability in data set [5] came out at 35%. The Ki in [3] came to 39 nM.
For `COc1ccc(C(=O)NCCc2cn(Cc3cnc(C)nc3N)nn2)cc1`, in [1], the IC50 worked out at 35000 nM. Also, the inhibition in data set [4] was 22%; in data set [6], < 10%. For the same molecule, the Ratio in [2] turned out to be 0.29. In data set [5], the permeability was 26%. The inhibition constant (Ki) in data set [3] stood at 175 nM.
Regarding `Cc1ncc(Cn2cc(CCNC(=O)c3ccc(Cl)cc3)nn2)c(N)n1`, the 50% inhibitory concentration (IC50) in [1] is 66000 nM.
For `COc1ccc(C2(NCCc3scc(Cc4cnc(C)nc4N)c3C)COC2)cc1`, the remaining at 2 h was > 90% in data set [8], 22% in data set [9], > 90% in [10] and > 90% in [12]. In data set [1], the half-maximal inhibitory concentration (IC50) was found to be 990 nM. For the same molecule, the remaining at 0.5 h in data set [11] is > 90%. Moreover, the Stability result in data set [7] is listed as “Stable”. Besides, the inhibition was > 90% in [4] and 65% in [6]. For the same molecule, in data set [2], the Ratio came to 10.1. Moreover, the permeability in [5] worked out at 44%. In [3], the Ki is 4.95 nM. The remaining at 1 h in [13] is > 90%.
Take `Cc1ncc(Cn2cc(CCO)nn2)c(N)n1`: the IC50 in data set [1] amounted to 30000 nM. Besides, the Ki in data set [3] came out at 150 nM.
Take `COc1ccc(C(=O)OCCc2scc(Cc3cnc(C)nc3N)c2C)cc1`: the remaining at 2 h is > 90% in data set [8], 43% in data set [9], 15% in data set [10] and > 90% in [12]. Further, the IC50 in [1] came to 890 nM. Also, in [11], the remaining at 0.5 h is < 10%. For the same molecule, the Stability result in data set [7] was “Unstable”. The figures for the inhibition in [4] and in data set [6] were > 90% and 72%, respectively. Moreover, the Ratio in data set [2] amounted to 11.2. In data set [5], the permeability was found to be 39%. Further, in [3], the Ki was 4.45 nM. Further, the remaining at 1 h in data set [13] was found to be 31%. Also, in data set [14], the Drug metabolism result is listed as “Metabolite_Detected”.
In the case of `Cc1ncc(Cc2coc(CCNC(=O)c3ccc(Cl)cc3)c2)c(N)n1`, the IC50 in data set [1] was 9200 nM.
Regarding `Cc1ncc(CN2CS[C@H](CCO)[C@@H]2C)c(N)n1` (racemic), in data set [1], the IC50 came to 21000 nM. Besides, in data set [2], the Ratio came to 0.48. Moreover, the Ki in [3] was 105 nM.
